Where “and” joins values, the source holds several entries; their conditions need not be identical. Identical values can stand only once. ± gives the expanded uncertainty stated by the source.
Settings: Crystal, Calculated from knudsen effusion weight loss

[Br][Al]([Br])[Br] [aluminum bromide]
Settings | vapor or sublimation pressure
301 K | 0.00013 ± 1e-05 kPa
303 K | 0.00018 ± 1e-05 kPa
306 K | 0.00024 ± 1e-05 kPa
307 K | 0.00035 ± 2e-05 kPa and 0.00034 ± 2e-05 kPa
309 K | 0.00043 ± 2e-05 kPa and 0.00035 ± 2e-05 kPa
310 K | 0.00045 ± 2e-05 kPa
312 K | 0.00049 ± 3e-05 kPa and 0.00056 ± 3e-05 kPa and 0.00046 ± 2e-05 kPa
312.5 K | 0.00054 ± 3e-05 kPa
314 K | 0.00062 ± 3e-05 kPa
314.5 K | 0.00071 ± 4e-05 kPa
315 K | 0.00072 ± 4e-05 kPa and 0.00068 ± 3e-05 kPa
315.5 K | 0.00085 ± 4e-05 kPa
316 K | 0.00071 ± 4e-05 kPa
316.5 K | 0.00089 ± 5e-05 kPa
317 K | 0.00095 ± 5e-05 kPa and 0.00083 ± 4e-05 kPa
317.5 K | 0.00089 ± 4e-05 kPa
318 K | 0.00089 ± 4e-05 kPa
318.5 K | 0.00107 ± 0.00011 kPa and 0.00102 ± 0.0001 kPa and 0.00112 ± 0.00011 kPa
320 K | 0.00107 ± 0.00011 kPa and 0.00123 ± 0.00013 kPa
320.5 K | 0.00123 ± 0.00013 kPa
321 K | 0.00135 ± 0.00014 kPa
321.5 K | 0.00141 ± 0.00015 kPa
323 K | 0.00166 ± 0.00018 kPa [middle of 4 runs]
324 K | 0.0017 ± 0.00019 kPa and 0.00178 ± 0.0002 kPa
324.5 K | 0.00191 ± 0.00022 kPa
325 K | 0.00209 ± 0.00024 kPa
326 K | 0.00204 ± 0.00024 kPa and 0.00214 ± 0.00025 kPa
327 K | 0.0024 ± 0.00029 kPa and 0.00282 ± 0.00035 kPa
327.5 K | 0.00234 ± 0.00028 kPa
328 K | 0.00269 ± 0.00033 kPa and 0.00251 ± 0.0003 kPa
330 K | 0.00363 ± 0.00046 kPa and 0.00324 ± 0.00041 kPa
330.5 K | 0.00309 ± 0.00038 kPa
331 K | 0.00389 ± 0.0005 kPa
332.5 K | 0.00468 ± 0.00062 kPa
333 K | 0.00457 ± 0.00061 kPa and 0.00398 ± 0.00052 kPa
333.5 K | 0.00437 ± 0.00058 kPa
335 K | 0.00575 ± 0.00079 kPa
336 K | 0.00575 ± 0.00079 kPa and 0.00617 ± 0.00086 kPa and 0.00562 ± 0.00077 kPa
337 K | 0.00724 ± 0.001 kPa
338 K | 0.00741 ± 0.0011 kPa and 0.00794 ± 0.0011 kPa
340 K | 0.00933 ± 0.0014 kPa and 0.00813 ± 0.0012 kPa
343 K | 0.01259 ± 0.0019 kPa
344 K | 0.01288 ± 0.002 kPa
345 K | 0.01479 ± 0.0023 kPa
348 K | 0.0195 ± 0.0032 kPa
351 K | 0.02512 ± 0.0043 kPa

[I][Al]([I])[I] [aluminum iodide]
Settings | vapor or sublimation pressure
359.5 K | 7e-05 ± 1e-05 kPa
361 K | 0.0001 ± 1e-05 kPa
364 K | 0.00014 ± 1e-05 kPa
365 K | 0.00019 ± 1e-05 kPa and 0.00014 ± 1e-05 kPa
366.5 K | 0.00017 ± 1e-05 kPa
367.5 K | 0.00019 ± 1e-05 kPa
368 K | 0.00019 ± 1e-05 kPa and 0.00025 ± 1e-05 kPa
368.5 K | 0.00025 ± 1e-05 kPa
369.5 K | 0.00025 ± 1e-05 kPa
371.5 K | 0.00027 ± 1e-05 kPa
372 K | 0.0003 ± 2e-05 kPa and 0.00034 ± 2e-05 kPa
372.5 K | 0.00034 ± 2e-05 kPa
374.5 K | 0.00049 ± 3e-05 kPa and 0.00039 ± 2e-05 kPa and 0.00036 ± 2e-05 kPa
375.5 K | 0.00044 ± 2e-05 kPa
376 K | 0.00042 ± 2e-05 kPa and 0.00049 ± 3e-05 kPa
377 K | 0.00059 ± 3e-05 kPa and 0.00049 ± 3e-05 kPa
378 K | 0.00054 ± 3e-05 kPa
378.5 K | 0.00059 ± 3e-05 kPa and 0.00063 ± 3e-05 kPa
380 K | 0.00068 ± 3e-05 kPa and 0.00071 ± 4e-05 kPa
380.5 K | 0.00083 ± 4e-05 kPa and 0.00078 ± 4e-05 kPa
381 K | 0.00078 ± 4e-05 kPa
382 K | 0.00083 ± 4e-05 kPa
383 K | 0.00093 ± 5e-05 kPa
383.5 K | 0.00087 ± 4e-05 kPa
385 K | 0.00126 ± 0.00013 kPa and 0.00102 ± 0.0001 kPa
385.5 K | 0.00112 ± 0.00011 kPa
387 K | 0.00135 ± 0.00014 kPa
388 K | 0.00135 ± 0.00014 kPa
389 K | 0.00186 ± 0.00021 kPa
390 K | 0.0017 ± 0.00019 kPa and 0.00182 ± 0.00021 kPa and 0.00174 ± 0.0002 kPa
391 K | 0.0017 ± 0.00019 kPa and 0.00209 ± 0.00024 kPa
393 K | 0.00245 ± 0.00029 kPa
393.5 K | 0.00214 ± 0.00025 kPa and 0.00234 ± 0.00028 kPa
394 K | 0.00257 ± 0.00031 kPa
395 K | 0.00251 ± 0.0003 kPa and 0.00282 ± 0.00035 kPa
396.5 K | 0.00295 ± 0.00036 kPa
397 K | 0.00324 ± 0.00041 kPa
397.5 K | 0.00363 ± 0.00046 kPa
398 K | 0.00347 ± 0.00044 kPa and 0.00339 ± 0.00043 kPa
399 K | 0.0038 ± 0.00049 kPa
399.5 K | 0.00407 ± 0.00053 kPa and 0.00417 ± 0.00055 kPa
400 K | 0.00417 ± 0.00055 kPa
401 K | 0.00437 ± 0.00058 kPa
402 K | 0.00537 ± 0.00073 kPa and 0.00501 ± 0.00068 kPa
403 K | 0.00525 ± 0.00071 kPa
403.5 K | 0.00562 ± 0.00077 kPa and 0.0055 ± 0.00075 kPa
404.5 K | 0.00562 ± 0.00077 kPa
405 K | 0.00603 ± 0.00084 kPa and 0.00661 ± 0.00093 kPa
406 K | 0.00759 ± 0.0011 kPa
407 K | 0.00759 ± 0.0011 kPa
408 K | 0.00776 ± 0.0011 kPa and 0.00794 ± 0.0011 kPa
408.5 K | 0.00871 ± 0.0013 kPa
409 K | 0.00933 ± 0.0014 kPa
409.5 K | 0.00832 ± 0.0012 kPa
411 K | 0.01047 ± 0.0016 kPa and 0.01023 ± 0.0015 kPa
412 K | 0.01175 ± 0.0018 kPa and 0.01096 ± 0.0017 kPa
413 K | 0.01288 ± 0.002 kPa and 0.01148 ± 0.0018 kPa
414.5 K | 0.01413 ± 0.0022 kPa
415 K | 0.01479 ± 0.0023 kPa and 0.01445 ± 0.0023 kPa
416 K | 0.01549 ± 0.0025 kPa and 0.01585 ± 0.0025 kPa
417 K | 0.0166 ± 0.0027 kPa
417.5 K | 0.0182 ± 0.003 kPa
419.5 K | 0.02188 ± 0.0037 kPa

— the NIST ThermoML archive (doi:10.1021/je9007553)
